Here are results for 1 cell line from the supplement of paper PMC10307832.

Common to all, as to experiment: relative viability (nuclei count vs DMSO), 5 days (fraction); higher = more cells survive
Compound in assay [1]: CC[C@@H](C)CNCC(=O)N1CCC2=C([C@@H]1COC3=CC=CC(=C3)C)C=CS2 [RU-SKI 43] + CC(C)C[C@H](NC(=O)[C@H](Cc1ccccc1)NC(=O)c1cnccn1)B(O)O [Bortezomib] (partner 0.002 µM)
The gist of the method: (§1)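 Medians of duplicate plates are given as relative viability. That measure is the nuclei count in treated wells divided by the count in vehicle wells. Counts were taken on 4× images of lung cancer cell lines in 1536-well plates, 5 days after pin-tool dosing the day after seeding with one drug alone or a fixed anchor-drug dose plus five library-drug doses (not always all listed) in √10 steps.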

Compound in assay [2]: CC[C@@H](C)CNCC(=O)N1CCC2=C([C@@H]1COC3=CC=CC(=C3)C)C=CS2 [RU-SKI 43] + Nc1ncn([C@H]2C[C@H](O)[C@@H](CO)O2)c(=O)n1 [Decitabine] (partner 2 µM)
The gist of the method: as §1

Compound in assay [3]: CCc1c2c(nc3ccc(OC(=O)N4CCC(N5CCCCC5)CC4)cc13)-c1cc3c(c(=O)n1C2)COC(=O)[C@]3(O)CC [Irinotecan] + COc1cccc2cc(-c3nc([C@H]4CC[C@H](C(=O)O)CC4)n4ncnc(N)c34)[nH]c12 [OSI-027] (partner 0.5 µM)
A digest of the protocol:
as §1

Compound in assay [4]: CC[C@@H](C)CNCC(=O)N1CCC2=C([C@@H]1COC3=CC=CC(=C3)C)C=CS2 [RU-SKI 43] + CC(=O)c1c(C)c2cnc(Nc3ccc(N4CCNCC4)cn3)nc2n(C2CCCC2)c1=O [Palbociclib] (partner 0.5 µM)
The gist of the method: as §1

Take UMC-11: the relative viability in assay [1] (first compound 0.1 µM) turned out to be 0.731; in assay [1] (first compound 0.3162 µM), 1.1; in assay [1] (first compound 1 µM) it was 1.05; in assay [1] (first compound 3.162 µM), 0.666; in assay [1] (first compound 10 µM) it was 0.927; in assay [2] (first compound 0.1 µM), 0.668. Besides, the relative viability in assay [2] (first compound 0.3162 µM) stood at 0.614; in assay [2] (first compound 1 µM), 0.675; in assay [2] (first compound 3.162 µM) it was 0.619; in assay [2] (first compound 10 µM) it was 0.64; in assay [3] (first compound 0.6325 µM) it was 0.461; in assay [3] (first compound 2 µM), 0.475. Moreover, the relative viability in assay [3] (first compound 6.325 µM) worked out at 0.279; in assay [3] (first compound 20 µM), 0.155; in assay [4] (first compound 0.1 µM) it was 0.317; in assay [4] (first compound 0.3162 µM), 0.31; in assay [4] (first compound 1 µM) it was 0.351; in assay [4] (first compound 3.162 µM) it was 0.314. In addition, in assay [4] (first compound 10 µM), the relative viability is 0.323.
